Results on two compounds are retold here after patent US20160136229A1, “MATERIALS FOR POSITIVE CATHEPSIN B MODULATION AND METHODS OF USE FOR TREATING MILD COGNITIVE IMPAIRMENT (MCI), EARLY DEMENTIA, A-SYNUCLEINOPATHY, TRAUMATIC BRAIN INJURY, CARDIOMYOPATHY, EYE DISEASE AND SKIN DAMAGE” (University of North Carolina at Pembroke, priority 2013, published 2016).

The test system of experiment [1] is active cathepsin B. Briefly: Active cathepsin B in rat organotypic heart slice cultures (Aβ-induced cardiomyopathy model). In kind it is cell-based. The following applies: 2 days of treatment, P=0.027 vs vehicle. Here is the method:
FIG. 9. The active form of cathepsin B is reduced in the slice model of Δβ-induced cardiomyopathy. Organotypic heart slice cultures from rats were treated with the control vehicle solution or with Δβ42, the peptide that accumulates in Alzheimer's disease brains as well as in heart tissue during some forms of cardiomyopathy.
To test for changes in cathepsin B during protein accumulation induced myopathy, heart slice cultures from rat were prepared and treated with […], the peptide that accumulates in Alzheimer's disease brains as well as in heart tissue during some forms of cardiomyopathy (Bateman et al., 2012; Sanbe et al., 2004, 2005).

The subject of experiment [2] is transgenic mouse model of Alzheimer's disease. The settings on record: cited from earlier work.
The subject of experiment [3] is Fischer rats. The settings on record: cited from earlier work.

Regarding “Aβ42: the peptide that accumulates in Alzheimer's disease brains as well as in heart tissue during some forms of cardiomyopathy”, in experiment [1], the “active cathepsin B in heart slices” value is recorded as “significant decrease”.
`CC12CC3CC(C)(C1)CC(N)(C3)C2` [memantine]: the spatial learning result in experiment [2] is listed as “improve spatial learning”. For the same compound, the spatial memory entry in experiment [3] is “failed to significantly improve”.
